Data: patent US12398140B2, “Substituted pyrrolo [2,3-d]pyrimidines for treating familial dysautonomia” (PTC THERAPEUTICS, INC., priority 2019, dated 2025)
Structures can show the parent of a compound that is named as a salt.

Tested on: Elongator complex protein 1 (ELPI, also referred to as IKBKAP)
Assay: IKBKAP-HTRF assay (IKBKAP protein in lysates of FD patient-derived fibroblasts)
Format: cell-based, human
Details: FD patient-derived fibroblasts GM04589, 48 hours, 7-point concentration curve
Description: The assay is used for the quantitative determination of Elongator complex protein 1 (ELPI, also referred to as IKBKAP) concentration in cell lysates using the HTRF® (Homogeneous Time-Resolved Fluorescence) technology. IKBKAP is detected in a sandwich HTRF assay by use of an anti-IKAP antibody labeled with a donor and an anti-IKAP antibody labeled with an acceptor.
Cells were thawed and incubated in DMEM-10% FBS for 72 hours. Cells were trypsinized, counted, and re-suspended to a concentration of 50,000 cells/ml in DMEM-10% FBS. A 199 μL aliquot of the cell suspensions were plated at 10,000 cells per well in a 96 well microtiter plate and incubated for 3 to 5 hours. […] Test compounds were serially diluted 3.16-fold in 100% DMSO to generate a 7-point concentration curve. A 1 μL aliquot of 200× compound solution was transferred to cell-containing wells, and cells were incubated for 48 hours in a cell culture incubator (37° C., 5% CO2, 100% relative humidity). Triplicate samples were set up for each compound concentration. After 48 hours, the supernatant was removed from the cells and 50 μL of the 1×LB4 lysis buffer, containing protease inhibitors, was added to the cells and incubated with shaking at room temperature for 1 hour. A 36 μL aliquot of this lysate was subsequently transferred to the 384-well plate containing 4 μL of the antibody solution (1:50 dilution of anti IKAP d2 and anti-IKAP K(9+8) in detection buffer). The 384-well plate was then centrifuged for 1 minute to bring the solutions to the bottom of the plate and incubated overnight at 4° C. Fluorescence for each well of the plate at 665 nm and 620 nm was measured was on the EnVision plate reader (Perkin Elmer). The ΔF for each sample is calculated by:
[formula] wherein Signal is the normalized fluorescence for each sample well and Blank is the average normalized average fluorescence for the Blank control wells.
The maximum fold increase (MFI) in IKBKAP protein abundance for compounds of Formula (I) or a form thereof relative to the vehicle control are provided in Table 1. MFI was calculated by dividing the ΔF value for each sample well by the sample ΔF for the vehicle control wells.
The EC2x for IKBKAP protein expression obtained from the 7-point concentration curve generated for each test compound according to the protocol in Biological Example 1 are also provided in Table 1. The term “EC2x for IKBKAP protein expression” is defined as the concentration of test compound that is effective in producing two times the amount of IKBKAP protein in a FD patient cell compared to the amount produced from the DMSO vehicle control.

SMILES | EC2x for IKBKAP protein expression (concentration producing two times the amount of IKBKAP protein vs DMSO vehicle control) | MFI (maximum fold increase in IKBKAP protein abundance relative to the vehicle control)
Cl.NCCCc1cc2c(NCc3ccco3)nc(Cl)nc2[nH]1 [Cpd 1, 6-(3-aminopropyl)-2-chloro-N-[(furan-2-yl)methyl]-7H-pyrrolo[2,3-d]pyrimidin-4-amine hydrochloride] | *** (between >0.02 μM and ≤0.5 μM is indicated by three stars (***)) | **** (between >3.9 and ≤4.9 is indicated by four stars (****))
Cl.NCCCc1[nH]c2nc(Cl)nc(NCc3ccco3)c2c1F [Cpd 2, 6-(3-aminopropyl)-2-chloro-5-fluoro-N-[(furan-2-yl)methyl]-7H-pyrrolo[2,3-d]pyrimidin-4-amine hydrochloride] | *** (between >0.02 μM and ≤0.5 μM is indicated by three stars (***)) | *** (between >2.9 and ≤3.9 is indicated by three stars (***))
CNCCc1cc2c(NCc3ccco3)nc(Cl)nc2[nH]1.Cl [Cpd 3, 2-chloro-N-[(furan-2-yl)methyl]-6-[2-(methylamino)ethyl]-7H-pyrrolo[2,3-d]pyrimidin-4-amine hydrochloride] | *** (between >0.02 μM and ≤0.5 μM is indicated by three stars (***)) | ***** (>4.9 is indicated by five stars (*****))
CNC(C)Cc1cc2c(NCc3ccco3)nc(Cl)nc2[nH]1.Cl (stereo not shown) [Cpd 4, 2-chloro-N-[(furan-2-yl)methyl]-6-[2-(methylamino)propyl]-7H-pyrrolo[2,3-d]pyrimidin-4-amine hydrochloride] | *** (between >0.02 μM and ≤0.5 μM is indicated by three stars (***)) | **** (between >3.9 and ≤4.9 is indicated by four stars (****))
CNCCc1cc2c(NCc3nccs3)nc(Cl)nc2[nH]1.Cl [Cpd 5, 2-chloro-6-[2-(methylamino)ethyl]-N-[(1,3-thiazol-2-yl)methyl]-7H-pyrrolo[2,3-d]pyrimidin-4-amine hydrochloride] | *** (between >0.02 μM and ≤0.5 μM is indicated by three stars (***)) | ***** (>4.9 is indicated by five stars (*****))
CNCCc1[nH]c2nc(Cl)nc(NCc3ccco3)c2c1F.Cl [Cpd 6, 2-chloro-5-fluoro-N-[(furan-2-yl)methyl]-6-[2-(methylamino)ethyl]-7H-pyrrolo[2,3-d]pyrimidin-4-amine hydrochloride] | *** (between >0.02 μM and ≤0.5 μM is indicated by three stars (***)) | ***** (>4.9 is indicated by five stars (*****))
CN(C)CCc1cc2c(NCc3ccco3)nc(Cl)nc2[nH]1 [Cpd 7, 2-chloro-6-[2-(dimethylamino)ethyl]-N-[(furan-2-yl)methyl]-7H-pyrrolo[2,3-d]pyrimidin-4-amine] | * (An EC2x>1 μM is indicated by one star (*)) | * (An MFI≤1.9 is indicated by one star (*))
Cl.NCCc1cc2c(NCc3ccco3)nc(Cl)nc2[nH]1 [Cpd 8, 6-(2-aminoethyl)-2-chloro-N-[(furan-2-yl)methyl]-7H-pyrrolo[2,3-d]pyrimidin-4-amine hydrochloride] | *** (between >0.02 μM and ≤0.5 μM is indicated by three stars (***)) | *** (between >2.9 and ≤3.9 is indicated by three stars (***))
[2H]C([2H])([2H])NCCc1cc2c(NCc3ccco3)nc(Cl)nc2[nH]1 [Cpd 9, 2-chloro-N-[(furan-2-yl)methyl]-6-{2-[(^2H3)methylamino]ethyl}-7H-pyrrolo[2,3-d]pyrimidin-4-amine hydrochloride] | *** (between >0.02 μM and ≤0.5 μM is indicated by three stars (***)) | **** (between >3.9 and ≤4.9 is indicated by four stars (****))
C[C@H](N)Cc1[nH]c2nc(Cl)nc(NCc3ccco3)c2c1F.Cl [Cpd 10, 6-[(2S)-2-aminopropyl]-2-chloro-5-fluoro-N-[(furan-2-yl)methyl]-7H-pyrrolo[2,3-d]pyrimidin-4-amine hydrochloride] | **** (between >0.005 μM and ≤0.02 μM is indicated by four stars (****)) | ***** (>4.9 is indicated by five stars (*****))
CC(C)[C@H](N)Cc1cc2c(NCc3ccco3)nc(Cl)nc2[nH]1.Cl [Cpd 11, 6-[(2R)-2-amino-3-methylbutyl]-2-chloro-N-[(furan-2-yl)methyl]-7H-pyrrolo[2,3-d]pyrimidin-4-amine hydrochloride] | *** (between >0.02 μM and ≤0.5 μM is indicated by three stars (***)) | **** (between >3.9 and ≤4.9 is indicated by four stars (****))
CC(C)[C@H](N)Cc1cc2c(NCc3ccncc3)nc(Cl)nc2[nH]1.Cl.Cl [Cpd 12, 6-[(2R)-2-amino-3-methylbutyl]-2-chloro-N-[(pyridin-4-yl)methyl]-7H-pyrrolo[2,3-d]pyrimidin-4-amine dihydrochloride] | *** (between >0.02 μM and ≤0.5 μM is indicated by three stars (***)) | ***** (>4.9 is indicated by five stars (*****))
C[C@H](N)Cc1[nH]c2nc(Cl)nc(NCc3ccco3)c2c1Cl.Cl [Cpd 13, 6-[(2S)-2-aminopropyl]-2,5-dichloro-N-[(furan-2-yl)methyl]-7H-pyrrolo[2,3-d]pyrimidin-4-amine hydrochloride] | ***** (≤0.005 μM is indicated by five stars (*****)) | ***** (>4.9 is indicated by five stars (*****))
CC(C)[C@H](N)Cc1[nH]c2nc(Cl)nc(NCc3ccco3)c2c1F.Cl [Cpd 14, 6-[(2R)-2-amino-3-methylbutyl]-2-chloro-5-fluoro-N-[(furan-2-yl)methyl]-7H-pyrrolo[2,3-d]pyrimidin-4-amine hydrochloride] | **** (between >0.005 μM and ≤0.02 μM is indicated by four stars (****)) | ***** (>4.9 is indicated by five stars (*****))
CC(C)[C@H](N)Cc1[nH]c2nc(Cl)nc(NCc3ccncc3)c2c1F.Cl.Cl [Cpd 15, 6-[(2R)-2-amino-3-methylbutyl]-2-chloro-5-fluoro-N-[(pyridin-4-yl)methyl]-7H-pyrrolo[2,3-d]pyrimidin-4-amine dihydrochloride] | *** (between >0.02 μM and ≤0.5 μM is indicated by three stars (***)) | **** (between >3.9 and ≤4.9 is indicated by four stars (****))
C[C@H](N)Cc1cc2c(NCc3ccco3)nc(Cl)nc2[nH]1 [Cpd 16, 6-[(2S)-2-aminopropyl]-2-chloro-N-[(furan-2-yl)methyl]-7H-pyrrolo[2,3-d]pyrimidin-4-amine] | **** (between >0.005 μM and ≤0.02 μM is indicated by four stars (****)) | **** (between >3.9 and ≤4.9 is indicated by four stars (****))
CNCCc1[nH]c2nc(Cl)nc(NCc3ccco3)c2c1Cl.Cl [Cpd 17, 2,5-dichloro-N-[(furan-2-yl)methyl]-6-[2-(methylamino)ethyl]-7H-pyrrolo[2,3-d]pyrimidin-4-amine hydrochloride] | *** (between >0.02 μM and ≤0.5 μM is indicated by three stars (***)) | **** (between >3.9 and ≤4.9 is indicated by four stars (****))
